Results reported in patent US12472166B2, “Inhibition of mycobacterial type VII secretion” (priority 2019, dated 2025).
Where two headings read alike, the source gives them in different places.

Key:
[1] = test system: M. tuberculosis; assay: microbe, parasite or virus in culture; type: cell-based; details: for IC50: read-out: IC50 (μM) M.tb/REMA; for IC90: read-out: IC90 (μM) M.tb/REMA
[2] = human, microsomes, pH 7.4; for Compound remaining (%): 0.5 h
[3] = in vitro; details: human, microsomes, pH 7.4
[4] = test system: zebrafish embryos; details: in vivo
[5] = test system: M. marinum; type: cell-based
[6] = Mycobacterium tuberculosis, 168 h, replicating M. tuberculosis, seven days, 37° C.
[7] = Mycobacterium tuberculosis, concentration that reduced bacterial viability to lower than 10%
[8] = Mycobacterium tuberculosis, 168 h

Row | SMILES | IC50 [1, 6] | IC90 [1, 7] | further results
1 | COc1ccc(-c2nsc(SCC(=O)NC3CCCCC3)n2)cc1 [Compound I-22] | 0.663 µM | 2.5 µM | –
2 | O=C(CSc1nc(-c2ccncc2)ns1)NC1CCCC1 [Compound I-23] | 0.762 µM | 2.5 µM | –
3 | COc1ccc(-c2nsc(SCC(=O)Nc3cnccn3)n2)cc1 [Compound I-24] | 4.1 µM | 2.5 µM | –
4 | COc1ccc(-c2nsc(SCC(=O)OC3CCCC3)n2)cc1 [Compound I-25] | 0.526 µM | 5 µM | –
5 | O=C(CSc1nc(-c2ccccc2)ns1)NC1CCCC1 [Compound I-26] | 1.17 µM | 5 µM | –
6 | CNC(=O)CSc1nc(-c2ccc(OC)cc2)ns1 [Compound I-27] | 1.85 µM | 5 µM | –
7 | O=C(CSc1nc(-c2ccccc2)no1)NC1CCCC1 [Compound I-28] | – | – | IC50 [1, 8]: 2.11 µM; IC90 ([1]; Mycobacterium tuberculosis): 5 µM
8 | CCCC(C)NC(=O)CSc1nc(-c2ccc(OC)cc2)ns1 (stereo not drawn) [Compound I-29] | 1.25 µM | 10 µM | –
9 | COc1ccc(-c2nsc(SCC(=O)NCc3ccccc3)n2)cc1 [Compound I-30] | 2.42 µM | 10 µM | –
10 | O=C(CSc1nc(-c2ccccc2)no1)NC1CCCC1 [Compound I-31] | – | – | growth of M. tuberculosis ([1]; 10 μM): inhibited growth; IC50 [1]: 2.71 µM; IC90 [1]: 10 µM
11 | COc1ccc(-c2nsc(SCC(=O)NC(C)(C)C)n2)cc1 [Compound I-32] | 0.109 µM | > 10 µM | –
12 | O=C(COc1nc(-c2ccccc2)ns1)NC1CCCC1 [Compound I-33] | 7.85 µM | 10 µM | Half-life ([2]; 15 μM): 61.8 min; Compound remaining (%) [2]: 72%; CLint scaled at 15 μM [3]: 10.1 mL/min/kg
13 | COc1ccc(-c2nsc(SCC(=O)NCCC(F)(F)F)n2)cc1 [Compound I-34] | 0.038 µM | 0.31 µM | –
14 | O=C(CSc1nc(-c2ccccc2)ns1)NCCC(F)(F)F [Compound I-35] | 0.224 µM | 0.63 µM | Half-life ([2]; 15 μM): 48.6 min; Compound remaining (%) [2]: 65%; CLint scaled at 15 μM [3]: 12.8 mL/min/kg
15 | CCCNC(=O)CSc1nc(-c2ccc(Cl)cc2)ns1 [Compound I-36] | 0.058 µM | 0.16 µM | Half-life ([2]; 15 μM): 43.2 min; Compound remaining (%) [2]: 62%; CLint scaled at 15 μM [3]: 14.4 mL/min/kg
16 | O=C(CSc1nc(-c2ccc(Cl)cc2)ns1)NCCC(F)(F)F [Compound I-37] | 0.116 µM | 0.31 µM | Compound remaining (%) [2]: 55%; Half-life [2]: 34.8 min; CLint scaled [3]: 18 mL/min/kg
17 | COc1ccc(-c2nsc(SCC(=O)NCC3CCCC3)n2)cc1 [Compound I-38, reference compound] | – | – | toxicity (survival of zebra fish embryos scored by heartbeat) [4]: somewhat less toxic than I-40 and I-41; IC50 [1, 8]: 0.447 µM; IC90 ([1]; Mycobacterium tuberculosis): 1.25 µM
18 | Cc1cccc(-c2nsc(SCC(=O)NCC3CCCO3)n2)c1 (stereo not drawn) [Compound I-39, reference compound] | – | – | toxicity (survival of zebra fish embryos scored by heartbeat) [4]: least toxic of the comparative compounds; IC50 [1, 8]: 0.248 µM; IC90 ([1]; Mycobacterium tuberculosis): 0.63 µM
19 | CCOC(=O)CNC(=O)CSc1nc(-c2cccc(C)c2)ns1 [Compound I-40, reference compound] | – | – | toxicity (survival of zebra fish embryos scored by heartbeat) [4]: toxic; IC50 [1, 8]: 0.169 µM; IC90 ([1]; Mycobacterium tuberculosis): 0.31 µM
20 | CCOC(=O)CNC(=O)CSc1nc(-c2ccccc2)ns1 [Compound I-41, reference compound] | – | – | toxicity (survival of zebra fish embryos scored by heartbeat) [4]: toxic; IC50 [1, 8]: 0.269 µM; IC90 ([1]; Mycobacterium tuberculosis): 0.63 µM
21 | CCCNC(=O)COc1nc(-c2ccccc2)ns1 [Compound I-42] | > 10 µM | > 10 µM | –
22 | CO[C@H]1/C=C/O[C@@]2(C)Oc3c(C)c(O)c4c(O)c(c(/C=N/N5CCN(C)CC5)c(O)c4c3C2=O)NC(=O)/C(C)=C\C=C\[C@H](C)[C@H](O)[C@@H](C)[C@@H](O)[C@@H](C)[C@H](OC(C)=O)[C@@H]1C [Rifampin, reference compound] | – | – | bacterial viability (REMA) readout, control condition [5]: negative
